According to US7741436B2, “Biologically active peptides and their use for repairing injured nerves” (priority 2001, dated 2010):

How the values were obtained:
Format in all cases: cell-based
[1] = test system: rat cerebellar granule neurons; test: Electrophysiology: voltage-clamped whole-cell patch recordings of currents induced by laminin-1-derived peptides and fusion proteins; conditions: whole-cell patch clamp, neurons on laminin-1 substratum
From the text: Sixteen-day pregnant Sprague-Dawley female rats were obtained from Taconic Farms, and maintained at the animal facility of National Institute of Alcohol Abuse and Alcoholism (NTH), fed with NTH-31 diet, containing 20,000 IU/kg vitamin A after autoclaving. The rats were allowed to give birth, and cerebellar tissues of 3-day-old female pups were aseptically isolated as described previously (Matsuzawa et al., 1996a). A suspension of single cells was obtained by trypsinizing the cerebella as described elsewhere (Liesi and Wright, 1996), after which 10^5 cells were plated on 22 mm glass coverslip pre-coated with laminin-1. The cells were incubated in an atmosphere of 95% air/5% CO2 at +37° C. in RPMI 1640 culture medium supplemented with penicillin and streptomycin and 200 μM L-glutamine. After 24 hrs, the cells were used for electrophysiology.
Recordings were done at room temperature using a List EPC-7 patch-clamp amplifier in voltage-clamped whole-cell patch configuration as described previously (Liesi and Wright, 1996). Pipettes were pulled from borosilicate glass and lightly fire polished. Experiments were performed at room temperature. Whole-cell currents were recorded on a Gould 2400S strip chart recorder. Cell membrane potential was clamped at −40 mV unless otherwise noted. All bath solutions were applied through pinch-valves that controlled the flow from multiple reservoirs to a single 200 μm ID barrel of fused silica. Standard bath solution was RPMI 1640, buffered with 10 mM HEPES (pH 7.4). The standard pipette solution contained (in mM): CsMeSO4 100, CsCl 15, BAPTA 5, HEPES 10 (pH KOH-adjusted to 7.2). Tests for reversal potentials were conducted in low K^+ bath solution containing (in mM): NaCl 150, KCl 5, CaCl2 1, HEPES 10 (pH adjusted to 7.2 with NaOH) and a high K^+ bath solution, containing (in mM): NaCl 115, KCl 40, CaCl2 1, HEPES 10 (pH adjusted to 7.2 with NaOH). All bath solutions contained 300 nM TTX. […] Nernst reversal potentials were calculated according to Hille (1992). […]

[2] = test system: human embryonic neocortical neurons; test: Survival of human embryonic neocortical neurons on injured glial cells of the human spinal cord; conditions: 1 μg/ml soluble peptide, 72 hrs, vs lesion control
From the text: The CNS tissues were first placed in cold saline. The spinal cord tissues were identified under a stereomicroscope, and carefully freed of meninges. To obtain monolayer cultures of human spinal cord glial cells, the cells were dissociated by mechanical trituration using a Pasteur-pipette, and placed in Petri dishes (Corning, N.Y., USA) containing 10% fetal calf serum (Hyclone, Logan, UH) in DMEM-F12 (Gibco, U.K.) supplemented with penicillin and streptomycin as described (Liesi et al. 2001).
Human embryonic spinal cord glial cells were cultured till confluency in 10% fetal bovine serum as described (Liesi et al., 2001). The confluent cultures were trypsinized and cells replated at 100 000 cells/22 mm glass coverslip, and grown till confluency. The confluent cultures were changed into normal adult human serum, and injured by using a 18 G gauge sterile needle. The KDI peptide was added at 1 μg/ml (3 μM) and at 10 μg/ml (30 μM) concentration and the P1543 peptide (p20) was added at a concentration of 1 μM, and 50-100 000 freshly isolated human embryonic neocortical neurons were added on the glial cells. The control cultures had neurons added either without the peptide or the lesion. The cells were cultured for 72 hrs in 5% CO2/95% air at +37° C., and fixed for quantitation of neurons and measurement of their neuritic lengths. The neurons on glial monolayers were visualized by immunostaining using mouse monoclonal antibodies against a neuron-specific tubulin isoform (TUJ1). The results were evaluated by counting neurons in six random fields on 3 different coverslip per experiment. In this way, more than 300 neurons were counted per experiment. Statistical analysis of the results was performed using one-way analysis of Varians (ANOVA) and Student-Newman-Keuls multiple comparisons test on the Instat (v2.03) program (GraphPad, San Diego, Calif.).

human CNS neurons = test: Attachment and neurite outgrowth of human embryonic CNS neurons on synthetic peptides coupled to glass; conditions: 1 μg/ml, peptide coupled to glass, 24 hrs
Description: The cells were dissociated by trituration in a sterile culture medium (RPMI 1640) containing penicillin (100 U/ml), streptomycin (100 μg/ml) and 200 μM L-glutamine. The dissociated cells were plated on glass coverslips pre-coated (Liesi et al., 1989) with mouse laminin-1 (Boehringer-Mannheim, Germany) or with the peptides KDI-gc and RDIAEIIKDI-gc (SEQ ID NO: 1), as described elsewhere (Matsuzawa et al., 1996b). The peptides were from the Multiple Peptide Systems (La Jolla, Calif.). The cultures were maintained for 24 hrs, fixed in 2% paraformaldehyde, and processed for immunocytochemistry.
Immunocytochemistry for neuron specific tubulin isoform TUJ1 was performed as described elsewhere (Liesi et al., 2001). In short, the cells were permeabilized in methanol for 5 min at −20° C., washed in PBS and incubated with monoclonal TUJ1-antibodies for 1 hr at room temperature. The antibody was of high specificity and was used at 1:500 dilution. After immunocytochemistry, the coverslips were mounted in PBS:glycerol (1:1) and viewed with Olympus Provis fluorescence microscope with appropriate filter combinations.

Substance | induction of currents in cerebellar granule neurons [1] | attachment and neurite outgrowth of neocortical neurons on lesioned spinal cord glial cells [2] | attachment and neurite outgrowth of human CNS neurons (human CNS neurons)
EIIKDI [6-amino acid peptide truncated from P1543] | induced currents |  | 
RDIAEIIKDI [P1543, C-terminal neurite outgrowth decapeptide of the γ1-chain of laminin-1] | induced electrical currents | significant (p<0.001) improvement | supported attachment and neurite outgrowth
